pIC50: −log10 of the molar value.
Test system: 616215-338-R-J1-PDC complex spheroid viability
Test: Anticancer human tumor 616215-338-R-J1-PDC patient-derived colon adenocarcinoma cell line growth inhibition [RAS]
Settings: for pIC50: curve of first compound; for viability, T/C: stronger effect = lower value
In short: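 Multi-cell-type spheroids: tumor cells plus HUVEC endothelial cells and mesenchymal stem cells. RAS-pathway inhibitors were combined with targeted agents, each dosed in half-log steps down from clinical Cmax, or from 10 microM when Cmax was unknown.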

[1] = second compound 0.00316 µM, first compound 0.0316 µM
[2] = second compound 0.00316 µM, first compound 0.1 µM
[3] = second compound 0.00316 µM, first compound 0.316 µM
[4] = second compound 0.00316 µM, first compound 1 µM
[5] = second compound 0.01 µM, first compound 0.0316 µM
[6] = second compound 0.01 µM, first compound 0.1 µM
[7] = second compound 0.01 µM, first compound 0.316 µM
[8] = second compound 0.01 µM, first compound 1 µM
[9] = second compound 0.0316 µM, first compound 0.0316 µM
[10] = second compound 0.0316 µM, first compound 0.1 µM
[11] = second compound 0.0316 µM, first compound 0.316 µM
[12] = second compound 0.0316 µM, first compound 1 µM
[13] = second compound 0.1 µM, first compound 0.0316 µM
[14] = second compound 0.1 µM, first compound 0.1 µM
[15] = second compound 0.1 µM, first compound 0.316 µM
[16] = second compound 0.1 µM, first compound 1 µM
[17] = second compound 0.316 µM, first compound 0.0316 µM
[18] = second compound 0.316 µM, first compound 0.1 µM
[19] = second compound 0.316 µM, first compound 0.316 µM
[20] = second compound 0.316 µM, first compound 1 µM
[21] = second compound 1 µM, first compound 0.0316 µM
[22] = second compound 1 µM, first compound 0.1 µM
[23] = second compound 1 µM, first compound 0.316 µM
[24] = second compound 1 µM, first compound 1 µM
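Note: spheroids exposed to agents for seven days before viability readout.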
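Throughout, for viability, T/C: 100% = DMSO vehicle control viability.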

CCN1CCN(Cc2ccc(Nc3ncc(F)c(-c4cc(F)c5nc(C)n(C(C)C)c5c4)n3)nc2)CC1 + C=CC(=O)N1CCN(c2nc(OCC3CCCN3C)nc3c(F)c(-c4nc(N)cc(C)c4C(F)(F)F)c(Cl)cc23)C(C)C1
pIC50 (second compound 0.00316 µM): < 6.00
pIC50 (second compound 0.01 µM): < 6.00
pIC50 (second compound 0.0316 µM): < 6.00
pIC50 (second compound 0.1 µM): < 6.00
pIC50 (second compound 0.316 µM): < 6.00
pIC50 (second compound 1 µM): < 6.00
viability, T/C (second compound 0.00316 µM, first compound 0.00316 µM): 110%
viability, T/C (second compound 0.00316 µM, first compound 0.01 µM): 110%
viability, T/C [1]: 121%
viability, T/C [2]: 118%
viability, T/C [3]: 150%
viability, T/C [4]: 65%
viability, T/C (second compound 0.01 µM, first compound 0.00316 µM): 112%
viability, T/C (second compound 0.01 µM, first compound 0.01 µM): 120%
viability, T/C [5]: 114%
viability, T/C [6]: 123%
viability, T/C [7]: 145%
viability, T/C [8]: 56.2%
viability, T/C (second compound 0.0316 µM, first compound 0.00316 µM): 113%
viability, T/C (second compound 0.0316 µM, first compound 0.01 µM): 124%
viability, T/C [9]: 116%
viability, T/C [10]: 119%
viability, T/C [11]: 143%
viability, T/C [12]: 71.4%
viability, T/C (second compound 0.1 µM, first compound 0.00316 µM): 102%
viability, T/C (second compound 0.1 µM, first compound 0.01 µM): 102%
viability, T/C [13]: 118%
viability, T/C [14]: 117%
viability, T/C [15]: 141%
viability, T/C [16]: 64.2%
viability, T/C (second compound 0.316 µM, first compound 0.00316 µM): 114%
viability, T/C (second compound 0.316 µM, first compound 0.01 µM): 109%
viability, T/C [17]: 113%
viability, T/C [18]: 131%
viability, T/C [19]: 131%
viability, T/C [20]: 59.3%
viability, T/C (second compound 1 µM, first compound 0.00316 µM): 117%
viability, T/C (second compound 1 µM, first compound 0.01 µM): 116%
viability, T/C [21]: 109%
viability, T/C [22]: 120%
viability, T/C [23]: 154%
viability, T/C [24]: 67.7%

C[C@@H](NC(=O)c1ncnc(N)c1Cl)c1ncc(C(=O)Nc2cc(C(F)(F)F)c(Cl)cn2)s1 + C=CC(=O)N1CCN(c2nc(OCC3CCCN3C)nc3c(F)c(-c4nc(N)cc(C)c4C(F)(F)F)c(Cl)cc23)C(C)C1
pIC50 (second compound 0.00316 µM): < 5.00
pIC50 (second compound 0.01 µM): < 5.00
pIC50 (second compound 0.0316 µM): < 5.00
pIC50 (second compound 0.1 µM): 5.01
pIC50 (second compound 0.316 µM): < 5.00
pIC50 (second compound 1 µM): < 5.00
viability, T/C [1]: 109%
viability, T/C [2]: 111%
viability, T/C [3]: 120%
viability, T/C [4]: 140%
viability, T/C (second compound 0.00316 µM, first compound 3.16 µM): 118%
viability, T/C (second compound 0.00316 µM, first compound 10 µM): 53.5%
viability, T/C [5]: 106%
viability, T/C [6]: 114%
viability, T/C [7]: 121%
viability, T/C [8]: 120%
viability, T/C (second compound 0.01 µM, first compound 3.16 µM): 97.1%
viability, T/C (second compound 0.01 µM, first compound 10 µM): 59.9%
viability, T/C [9]: 102%
viability, T/C [10]: 112%
viability, T/C [11]: 114%
viability, T/C [12]: 119%
viability, T/C (second compound 0.0316 µM, first compound 3.16 µM): 122%
viability, T/C (second compound 0.0316 µM, first compound 10 µM): 59.5%
viability, T/C [13]: 118%
viability, T/C [14]: 103%
viability, T/C [15]: 113%
viability, T/C [16]: 114%
viability, T/C (second compound 0.1 µM, first compound 3.16 µM): 107%
viability, T/C (second compound 0.1 µM, first compound 10 µM): 48.6%
viability, T/C [17]: 114%
viability, T/C [18]: 104%
viability, T/C [19]: 113%
viability, T/C [20]: 117%
viability, T/C (second compound 0.316 µM, first compound 3.16 µM): 116%
viability, T/C (second compound 0.316 µM, first compound 10 µM): 65%
viability, T/C [21]: 112%
viability, T/C [22]: 98.6%
viability, T/C [23]: 111%
viability, T/C [24]: 131%
viability, T/C (second compound 1 µM, first compound 3.16 µM): 112%
viability, T/C (second compound 1 µM, first compound 10 µM): 61.2%

From PubChem BioAssay AID2060898 (Molecular Pharmacology Branch, DTP, NCI, 2025)
